Data as given in patent US7326700B2, “Cyclohexenyl phenyl carboxamides tocolytic oxytocin receptor antagonists” (Wyeth, priority 2001, dated 2008).

These molecules were tested against T1, human vasopressin V1a receptor subtype (Homo sapiens, UniProt P37288) (assay: Vasopressin binding in CHO cell membranes expressing human vasopressin V1a subtype receptors ([3H]Manning ligand radioligand binding)). Details: 100 nM.
T1 construct: host or cells: CHO cells, stably transfected (pZeoSV vector for the Thibonnier line)
Text: Chinese hamster ovary cells (CHO cells) stably transfected with the human vasopressin V1a subtype receptors were either obtained from Biosignal Inc., 1744 rue Williams, Montreal, Quebec, Canada or obtained from M. Thibonnier, Case Western Reserve University School of Medicine, Cleveland, Ohio.
CHO cells transfected with the human vasopressin V1a subtype receptors obtained from M. Thibonnier (pZeoSV vector) are allowed to grow to confluency (approx. >90%) in T-150 flasks under sterile conditions, in a cell culture medium consisting of F-12 Nutrient Mixture (HAM) with L-glutamine (Gibco Cat. #11765-054) containing 15 mM HEPES (Gibco Cat. #15630-080), 1% antibiotic/antimycotic (add 5 mL 100×, Gibco Cat. #15240-062 per 500 mL F-12), 250 μg/mL Zeocin (add 1.25 mL of 100 mg/mL Invitrogen R-250-01 per 500 mL F-12) and 10% Fetal Bovine Serum (Qualified, heat inactivated, Gibco Cat. #16140-063). The medium is removed by aspiration and the cells are washed with 10 mL of Hank's Balanced Salt solution (Gibco Cat. #14175-095). The salt solution is removed by aspiration and the cells are trypsinized with 5 mL of trypsin-EDTA (0.05% trypsin, 0.53 mM EDTA-4Na, Gibco Cat. #25300-070) for 1 min. The trypsin is removed by aspiration and the cells dislodged by tapping. Cell Culture medium (eg, 30 mL for 1:30 split) is immediately added and mixed well to inactivate trypsin. 1 mL of detached cells is added to new culture flasks containing fresh cell culture medium (eg, into 25 mL per T-150 flask), and mixed gently. The cells are incubated at 37° C. in 5% CO2. The medium is changed at 3 to 4 days interval (or as appropriate). The cells grow to confluency (approx. >75%-95%) within 7-8 days. All steps are done under sterile conditions.
The cells are washed twice gently with Hank's Balanced Salt solution (e.g,. use 10 mL per T-150 flask). The excess is removed and the cells are bathed for 15-30 min. in an enzyme-free Cell Dissociation Buffer (e.g. use 8 mL Hank's Based, Gibco Cat. #13150-016 per T-150 flask) until the cells are loosened. The contents are transferred to centrifuge tubes (50 mL) kept in an ice bath. All subsequent steps are done at 4° C. The tubes are centrifuged at 300×g for 15 min (1380 rpm on SORVAL, Model RT6000D, using the rotor for 50 mL tubes). The supernatant is discarded and the cells suspended in homogeneizing buffer (10 mM Tris-HCl containing 0.25 M sucrose and 1 mM EDTA, pH 7.4) ensuring that the volume of the buffer is about ten times the volume of the cell pellet. The cells are pooled into a centrifuge tube (50 mL) and homogenized with Polytron at setting 6 for 10 sec. The homogenate is transferred into a Potter-Elvjehm homogenizer and homogenized with 3 strokes. The homogenate is centrifuged at 1500×g for 10 min at 4° C. (3100 rpm using SORVAL, model RT6000D, using the rotor for 50 mL tubes). The pellet is discarded. The supernatant is centrifuged at 100,000×g for 60 min. at 4° C. (Beckman L8-80M ultracentrifuge; spin at 37,500 rpm with rotor type 70 Ti for 50 mL tubes; 38,000 rpm with type 80Ti for 15 mL tubes; or 35,800 rpm with rotor type 45Ti). The supernantant is discarded and the pellet suspended in 3 to 4 mL of Tris buffer (50 mM TRIS-HCl, pH 7.4). The protein content is estimated by the Bradford or Lowry method. The volume of the membrane suspension is adjusted with the membrane buffer (50 mM Tris-HCl containing 0.1% BSA and 0.1 mM PMSF) to give 3.0 mg/mL (or as appropriate) of protein. The membranes are aliquoted and stored at −70° C.
In wells of a 96-well format microtiter plate, is added 90, 110 or 130 μL (to make up a final volume of 200 μL) of assay buffer containing 50 mM of Tris-HCl (pH 7.4), BSA (heat inactivated, protease-free), […], 1 mg % aprotinin, 1 mg % leupeptin, 2 mg % 1,10-phenanthroline, 10 mg % trypsin inhibitor, and 0.1 mM PMSF. The inhibitors are added on the day of the experiment. […]

T1 sequence (P37288 whole entry): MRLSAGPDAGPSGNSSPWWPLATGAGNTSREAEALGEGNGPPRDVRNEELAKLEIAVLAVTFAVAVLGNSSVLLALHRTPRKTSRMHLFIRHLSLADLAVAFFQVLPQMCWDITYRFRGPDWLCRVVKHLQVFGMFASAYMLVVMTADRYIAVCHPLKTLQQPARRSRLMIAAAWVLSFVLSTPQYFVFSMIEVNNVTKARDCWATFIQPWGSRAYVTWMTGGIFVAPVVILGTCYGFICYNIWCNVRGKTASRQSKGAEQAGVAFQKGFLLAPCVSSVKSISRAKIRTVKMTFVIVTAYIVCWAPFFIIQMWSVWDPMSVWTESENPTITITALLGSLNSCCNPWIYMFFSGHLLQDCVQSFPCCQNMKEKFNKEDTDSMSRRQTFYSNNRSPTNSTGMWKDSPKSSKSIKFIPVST

SMILES	V1a % inhibition @ 100 nM [%]	inhibition at 0.1 µM [%]
Cc1cc(C(=O)N2Cc3ccc(C(=O)N4CCC[C@H]4CN4CCCC4)n3Cc3ccccc32)ccc1C1=CCCCC1 [Example 26, {10-[4-(1-Cyclohex-1-en-1-yl)-3-methylbenzoyl]-10,11-dihydro-5H-pyrrolo[2,1-c][1,4]benzodiazepin-3-yl}[(2S)-2-(1-pyrrolidinylmethyl)pyrrolidinyl]methanone]	38	
Cc1cc(C(=O)N2Cc3ccc(C(=O)N4CCN(CCN(C)C)CC4)n3Cc3ccccc32)ccc1C1=CCCCC1 [Example 22, {10-[4-(1-Cyclohex-1-en-1-yl)-3-methylbenzoyl]-10,11-dihydro-5H-pyrrolo[2,1-c][1,4]benzodiazepin-3-yl}{4-[2-(dimethylamino)ethyl]-1-piperazinyl}methanone]	34	
Cc1cc(C(=O)N2Cc3ccc(C(=O)N4CCCN(C)CC4)n3Cc3ccccc32)ccc1C1=CCCCC1 [Example 13, {10-[4-(1-Cyclohex-1-en-1-yl)-3-methylbenzoyl]-10,11-dihydro-5H-pyrrolo[2,1-c][1,4]benzodiazepin-3-yl}(4-methyl-1,4-diazepan-1-yl)methanone]	34	
Cc1cc(C(=O)N2Cc3ccc(C(=O)NCCCN(C)C)n3Cc3ccccc32)ccc1C1=CCCCC1 [Example 14, 10-[4-(1-Cyclohex-1-en-1-yl)-3-methylbenzoyl]-N-[3-(dimethylamino)propyl]-10,11-dihydro-5H-pyrrolo[2,1-c][1,4]benzodiazepine-3-carboxamide]	24	
COc1cc(C2=CCCCC2)c(Cl)cc1C(=O)N1Cc2ccc(C(=O)N(C)CCCN(C)C)n2Cc2ccccc21 [Example 2, 10-(5-Chloro-4-cyclohex-1-en-1-yl-2-methoxybenzoyl)-N-[3-(dimethylamino)propyl]-N-methyl-10,11-dihydro-5H-pyrrolo[2,1-c][1,4]benzodiazepine-3-carboxamide]		19
CC1=C(c2ccc(C(=O)N3Cc4ccc(C(=O)N5CCN(C)CC5)n4Cc4ccccc43)cc2C)CCCC1O (stereo not drawn) [Example 10, [4-(3-Hydroxy-2-methyl-cyclohex-1-en-1-yl)-3-methyl-phenyl]-[3-(4-methyl-piperazine-1carbonyl)-10,11-dihydro-5H-pyrrolo[2,1-c][1,4]benzodiazepin-10-yl]-methanone]		52
